These results are taken from paper PMC12250628, “Pharmacokinetics of Cannabidiol in Rat Brain Tissue After Single-Dose Administration of Different Formulations” (Molecules, 2025).

Data set [1] can be described thus: Locomotor behavior and cognitive performance of the studied animals after CBD administration. Format: in vivo, rat. Particulars: rats, single oral dose of 10 mg/kg CBD.
On the set-up of data set [2]: method as in PMID 34330718, PMID 28861484. Particulars: phase I CBD metabolites; cited from earlier work.

Consider `C=C(C)[C@@H]1CCC(C)=C[C@H]1c1c(O)cc(CCCCC)cc1O` [CBD, cannabidiol], for which the “impact on locomotor behavior and cognitive performance” value in data set [1] is “no negative impacts on locomotor behavior and cognitive performance”. On to `C=C(C)[C@@H]1CCC(C(=O)O)=C[C@H]1c1c(O)cc(CCCCC)cc1O` [Carrier 7-COOH-CBD, 7-carboxy-cannabidiol], for which the pharmacological activity entry in data set [2] is listed as “does not exhibit such activity anymore”.

With `C=C(C)[C@@H]1CCC(CO)=C[C@H]1c1c(O)cc(CCCCC)cc1O` [Carrier 7-OH-CBD, 7-hydroxy-cannabidiol], the pharmacological activity result in data set [2] is “pharmacologically active”.
